These results are taken from US20020037560A1, “Bicyclic terpenes and synthesis thereof” (priority 2000, published 2002).

In the assay the target is T1, Tobacco 5-epi-aristolochene synthase (TEAS) (Nicotiana tabacum, UniProt Q40577).
T1 construct: made in house
T1 sequence (Q40577 1-548): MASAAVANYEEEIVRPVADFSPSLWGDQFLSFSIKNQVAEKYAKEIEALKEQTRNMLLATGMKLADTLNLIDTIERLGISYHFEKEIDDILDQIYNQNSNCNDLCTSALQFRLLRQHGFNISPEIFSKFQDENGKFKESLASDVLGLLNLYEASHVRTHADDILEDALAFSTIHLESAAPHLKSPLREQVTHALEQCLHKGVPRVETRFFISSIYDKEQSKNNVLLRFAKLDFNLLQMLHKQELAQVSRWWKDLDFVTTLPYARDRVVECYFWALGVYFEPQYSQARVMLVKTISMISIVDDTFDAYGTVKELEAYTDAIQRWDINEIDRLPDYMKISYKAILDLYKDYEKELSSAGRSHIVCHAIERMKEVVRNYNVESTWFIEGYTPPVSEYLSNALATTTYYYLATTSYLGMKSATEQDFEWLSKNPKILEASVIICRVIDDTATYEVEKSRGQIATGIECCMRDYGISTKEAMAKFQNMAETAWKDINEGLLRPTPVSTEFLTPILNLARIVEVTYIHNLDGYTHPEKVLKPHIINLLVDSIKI
Kind of assay: TEAS activity assay (3H-FPP to 3H-5-epi-aristolochene, hexane partitioning). The assay is classed as biochemical. The method, then:
Kinetic Characterization of the Interaction of AGPP with TEAS. The assay for TEAS activity is based upon partitioning of the hydrophobic product (^3H-5-epi-aristolochene) into an organic solvent while the hydrophilic substrate (^3H-FPP) remains in the aqueous phase (i.e. Vögeli & Chappell, 1988; Back et al., 1994; Mathis et al. 1997). The Ki describing AGPP interaction with TEAS was characterized by measuring initial velocities for a matrix of reactions. Reactions (50 μl) containing 200 mM Tris-Cl, pH 7.5, 40 mM MgCl2, 50-250 nM TEAS, and 0.2 μCi ^3H-FPP, carrier-free or in combination with unlabeled FPP to give final substrate concentrations of 0.2-10 μM. Fixed concentrations of AGPP ranged from 0-150 μM. Reactions were initiated by the addition of enzyme and were incubated for 5 min. at 37° C. Reactions were quenched by vortexing against 150 μl hexane. After a brief centrifugation, 100 μl of the hexane phase was treated with approximately 20 mg of silica powder to remove any contaminating FPP or farnesol, the latter of which may be generated by contaminating phosphatase activity. Following vortexing and a brief centrifugation to pellet the silica, 50 μl of the hexane phase was mixed with 4 ml of liquid scintillation cocktail and analyzed for radioactivity (disintegrations per minute). Determination of reaction rate was based on percent conversion to product, the value for which was obtained by comparing the radioactivity in the hexane extract to that in an untreated aliquot of the assay mixture. […] Data were analyzed using Enzyme Kinetics V 1.5 (Trinity Software).
Kinetic Characterization of the Interaction of AGPP with TEAS. As a synthetic analog of FPP, AGPP (2) may potentially bind within the TEAS active site and thereby inhibit the sesquiterpene synthase activity of this enzyme. The nature of the potential interaction between TEAS and AGPP was characterized through a series of TEAS activity assays in which the ability of TEAS to produce ^3H-5-epi-aristolochene from ^3H-FPP was monitored in the presence of unlabeled AGPP. […]

The structures appear in SMILES notation.

Consider `C/C(=C\COP(=O)(O)OP(=O)(O)O)CC/C=C(\C)CNc1ccccc1` [AGPP, 8-anilino-geranyl pyrophosphate], for which the “mode of inhibition of TEAS-catalyzed cyclization of FPP (Lineweaver-Burk plots, FIG. 1)” value (intersecting Lineweaver-Burk plots) was “competitive inhibitor”. Under “recombinant TEAS, 3H-FPP substrate 0.2-10 μM, AGPP 0-150 μM, 5 min at 37° C., read-out: Ki for the inhibition of TEAS activity”, the Ki (commonly the equilibrium dissociation constant of an inhibitor or competing ligand from its target) was determined as 5.9 ± 1.8 µM.

As for `CC(C)=CCC/C(C)=C/CC/C(C)=C/COP(=O)(O)OP(=O)(O)O` [FPP], the Km – broadly, the substrate concentration at which the rate is half of its maximum – (at 37° C., read-out: KM, TEAS utilization of FPP as a substrate) was 5.4 µM.
